The nature of series [1]: SNO DPPTE exposure to light and/or room temperature. It is filed as physicochemical. To be noted: FIG. 17.
In series [2] the test system is porcine coronary injury model. Particulars: drug eluting stent loaded with the NO donor; cited from earlier work.

Results on two substances are retold here after patent US20200330655A1, “DELIVERY OF NITRIC OXIDE-RELEASING PHOSPHOLIPIDS, LIPOSOMES, AND HIGH DENSITY LIPOPROTEIN-LIKE NANOPARTICLES (HDL NPS) BY DRUG ELUTING STENTS AND INTRA-ARTERIAL INJECTION” (Northwestern University, priority 2016, published 2020).

Take “S-nitrosylated 1,2-dipalmitoyl-sn-glycero-3-phosphothioethanol [SNO DPPTE]”: the “stability on exposure to light and/or room temperature” value in series [1] is “forms disulfide bonds”.

As to nitroprus side, the “neointimal hyperplasia and restenosis” value in series [2] is recorded as “did not reduce”.
